This passage reports K cat, Ratio and Km results from ChEMBL document CHEMBL1139590, “Design, synthesis, and biological evaluation of novel human 5'-deoxy-5'-methylthioadenosine phosphorylase (MTAP) substrates” (Bioorg Med Chem Lett, 2005).

In data set [1] the target is T1, S-methyl-5'-thioadenosine phosphorylase (Homo sapiens) (UniProt Q13126).
T1 sequence (whole entry): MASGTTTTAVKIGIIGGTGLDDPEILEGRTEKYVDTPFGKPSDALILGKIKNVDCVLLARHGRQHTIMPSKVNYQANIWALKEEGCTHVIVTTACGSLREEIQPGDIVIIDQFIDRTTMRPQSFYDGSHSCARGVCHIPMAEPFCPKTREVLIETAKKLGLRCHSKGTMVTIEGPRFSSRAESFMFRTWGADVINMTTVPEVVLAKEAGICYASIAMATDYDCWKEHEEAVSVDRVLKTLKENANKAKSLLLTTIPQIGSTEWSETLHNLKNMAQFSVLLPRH
Put plainly: Kcat against human methylthioadenosine phosphorylase expressed in Escherichia coli BL21 DE3 cells.

The target in data set [2] is T1, S-methyl-5'-thioadenosine phosphorylase (Homo sapiens). Put plainly: Ratio of Kcat to Km against human Methylthioadenosine phosphorylase.
Substrate in data set [3]: C[C@H]1O[C@@H](n2cnc3c(N)ncnc32)[C@H](O)[C@@H]1O
Put plainly: (§1) Km against human methylthioadenosine phosphorylase expressed in Escherichia coli BL21 DE3 cells.

Substrate in data set [4]: Nc1ncnc2c1ncn2[C@@H]1O[C@H](CNc2ccccc2)[C@@H](O)[C@H]1O
The data set is described as §1.

Substrate in data set [5]: Nc1ncnc2c1ncn2[C@@H]1O[C@H](CSc2ccc(C(F)(F)F)cc2)[C@@H](O)[C@H]1O
Described as §1.

Substrate in data set [6]: CSC[C@H]1O[C@@H](n2cnc3c(N)ncnc32)[C@H](N)[C@@H]1O
The description is as §1.

Substrate in data set [7]: CSC[C@@H]1C[C@@H](O)[C@H](n2cnc3c(N)ncnc32)O1
The data set is described as §1.

Substrate in data set [8]: CCSC[C@H]1O[C@@H](n2cnc3c(N)ncnc32)[C@H](O)[C@@H]1O
The data set is described as §1.

Substrate in data set [9]: CCC(C)CSC[C@H]1O[C@@H](n2cnc3c(N)ncnc32)[C@H](O)[C@@H]1O
The description is as §1.

Substrate in data set [10]: Nc1ncnc2c1ncn2[C@@H]1O[C@H](CSCCc2ccccc2)[C@@H](O)[C@H]1O
The description is as §1.

Substrate in data set [11]: Nc1ncnc2c1ncn2[C@@H]1O[C@H](CSc2nccs2)[C@@H](O)[C@H]1O
The data set is described as §1.

Substrate in data set [12]: Nc1ncnc2c1ncn2[C@@H]1O[C@H](CSc2ccc3ccccc3n2)[C@@H](O)[C@H]1O
Described as §1.

Substrate in data set [13]: CSC[C@H]1O[C@@H](n2cnc3c(N)ncnc32)C[C@@H]1O
The data set is described as §1.

Substrate in data set [14]: CC(C)(C)SC[C@H]1O[C@@H](n2cnc3c(N)ncnc32)[C@H](O)[C@@H]1O
The data set is described as §1.

Substrate in data set [15]: Nc1ncnc2c1ncn2[C@@H]1O[C@H](CSCCc2ccccn2)[C@@H](O)[C@H]1O
The description is as §1.

Substrate in data set [16]: CCCCSC[C@H]1O[C@@H](n2cnc3c(N)ncnc32)[C@H](O)[C@@H]1O
Described as §1.

Substrate in data set [17]: Cc1cccc(SC[C@H]2O[C@@H](n3cnc4c(N)ncnc43)[C@H](O)[C@@H]2O)c1
Described as §1.

Substrate in data set [18]: Nc1ncnc2c1ncn2[C@@H]1O[C@H](CSCc2ccccc2)[C@@H](O)[C@H]1O
The data set is described as §1.

Substrate in data set [19]: COc1ccc(SC[C@H]2O[C@@H](n3cnc4c(N)ncnc43)[C@H](O)[C@@H]2O)cc1
The data set is described as §1.

Substrate in data set [20]: Nc1ncnc2c1ncn2[C@@H]1O[C@H](CSC2CCCCC2)[C@@H](O)[C@H]1O
The description is as §1.

Substrate in data set [21]: CC(C)CSC[C@H]1O[C@@H](n2cnc3c(N)ncnc32)[C@H](O)[C@@H]1O
The description is as §1.

Substrate in data set [22]: CC(C)CCSC[C@H]1O[C@@H](n2cnc3c(N)ncnc32)[C@H](O)[C@@H]1O
The description is as §1.

Substrate in data set [23]: Nc1ncnc2c1ncn2[C@@H]1O[C@H](CSC2CCCC2)[C@@H](O)[C@H]1O
The data set is described as §1.

Substrate in data set [24]: Nc1ncnc2c1ncn2[C@@H]1O[C@H](COc2ccccc2)[C@@H](O)[C@H]1O
The description is as §1.

Substrate in data set [25]: Nc1ncnc2c1ncn2[C@@H]1O[C@H](CSc2ccccc2)[C@@H](O)[C@H]1O
The description is as §1.

Substrate in data set [26]: Nc1ncnc2c1ncn2[C@@H]1O[C@H](CSc2ncc[nH]2)[C@@H](O)[C@H]1O
The data set is described as §1.

Substrate in data set [27]: Nc1ncnc2c1ncn2[C@@H]1O[C@H](CCc2ccccc2)[C@@H](O)[C@H]1O
Described as §1.

Substrate in data set [28]: Nc1ncnc2c1ncn2[C@@H]1O[C@H](CSc2ccccn2)[C@@H](O)[C@H]1O
The data set is described as §1.

Substrate in data set [29]: Nc1ncnc2c1ncn2[C@@H]1O[C@H](CSc2ccncc2)[C@@H](O)[C@H]1O
The description is as §1.

Substrate in data set [30]: Nc1ncnc2c1ncn2[C@@H]1O[C@H](CSCCO)[C@@H](O)[C@H]1O
The description is as §1.

Substrate in data set [31]: Cc1ccccc1SC[C@H]1O[C@@H](n2cnc3c(N)ncnc32)[C@H](O)[C@@H]1O
The description is as §1.

Substrate in data set [32]: CSC[C@H]1O[C@@H](n2cnc3c(N)ncnc32)C(N=[N+]=[N-])[C@@H]1O
The data set is described as §1.

Substrate in data set [33]: Cc1ccc(SC[C@H]2O[C@@H](n3cnc4c(N)ncnc43)[C@H](O)[C@@H]2O)cc1
Described as §1.

`Nc1ncnc2c1ncn2[C@@H]1O[C@H](CCc2ccccc2)[C@@H](O)[C@H]1O` had a K cat in data set [1] of 4.6 s⁻¹. Further, the Ratio in data set [2] came to 3.5 µM⁻¹ s⁻¹.
Taken in the same sequence, the figures for `Nc1ncnc2c1ncn2[C@@H]1O[C@H](CSC2CCCCC2)[C@@H](O)[C@H]1O` were 1.57 s⁻¹ and 0.45 µM⁻¹ s⁻¹.
Taken in the same sequence, the figures for `CSC[C@H]1O[C@@H](n2cnc3c(N)ncnc32)C(N=[N+]=[N-])[C@@H]1O` (stereo partly drawn) were 0.04 s⁻¹ and 1.1e-05 µM⁻¹ s⁻¹.
Taken in the same sequence, the figures for `Nc1ncnc2c1ncn2[C@@H]1O[C@H](CSCCc2ccccn2)[C@@H](O)[C@H]1O` were 1.01 s⁻¹ and 0.09 µM⁻¹ s⁻¹.
`Nc1ncnc2c1ncn2[C@@H]1O[C@H](CNc2ccccc2)[C@@H](O)[C@H]1O` came in with a K cat in [1] of 2.02 s⁻¹. In data set [2], the Ratio came to 0.24 µM⁻¹ s⁻¹.
The matching figures for `Nc1ncnc2c1ncn2[C@@H]1O[C@H](CSc2ccccc2)[C@@H](O)[C@H]1O`: 1.5 s⁻¹ and 0.5 µM⁻¹ s⁻¹.
`CSC[C@H]1O[C@@H](n2cnc3c(N)ncnc32)C[C@@H]1O` had a K cat in [1] of 0.28 s⁻¹. Further, in data set [2], the Ratio turned out to be 0.09 µM⁻¹ s⁻¹.
The matching figures for `Cc1ccccc1SC[C@H]1O[C@@H](n2cnc3c(N)ncnc32)[C@H](O)[C@@H]1O`: 0.18 s⁻¹ and 0.03 µM⁻¹ s⁻¹.
Taken in the same sequence, the figures for `Nc1ncnc2c1ncn2[C@@H]1O[C@H](CSC2CCCC2)[C@@H](O)[C@H]1O` were 1.5 s⁻¹ and 0.47 µM⁻¹ s⁻¹.
Taken in the same sequence, the figures for `CSC[C@H]1O[C@@H](n2cnc3c(N)ncnc32)[C@H](N)[C@@H]1O` were 0.67 s⁻¹ and 0.022 µM⁻¹ s⁻¹.
Consider `CSC[C@@H]1C[C@@H](O)[C@H](n2cnc3c(N)ncnc32)O1`, for which the K cat in [1] came to 0.004 s⁻¹. The Ratio in [2] was 0.001 µM⁻¹ s⁻¹.
Take `C[C@H]1O[C@@H](n2cnc3c(N)ncnc32)[C@H](O)[C@@H]1O`: in data set [1], the K cat turned out to be 4.8 s⁻¹. In addition, the Ratio in data set [2] amounted to 0.8 µM⁻¹ s⁻¹.
The matching figures for `Nc1ncnc2c1ncn2[C@@H]1O[C@H](CSc2ccncc2)[C@@H](O)[C@H]1O`: 0.23 s⁻¹ and 0.26 µM⁻¹ s⁻¹.
The matching figures for `Nc1ncnc2c1ncn2[C@@H]1O[C@H](CSCCO)[C@@H](O)[C@H]1O`: 1.46 s⁻¹ and 0.058 µM⁻¹ s⁻¹.
In the case of `COc1ccc(SC[C@H]2O[C@@H](n3cnc4c(N)ncnc43)[C@H](O)[C@@H]2O)cc1`, the K cat in data set [1] was 0.8 s⁻¹. In data set [2], the Ratio was determined as 0.11 µM⁻¹ s⁻¹.
Taken in the same sequence, the figures for `CCCCSC[C@H]1O[C@@H](n2cnc3c(N)ncnc32)[C@H](O)[C@@H]1O` were 5.9 s⁻¹ and 1.48 µM⁻¹ s⁻¹.
The matching figures for `CSC[C@H]1O[C@@H](n2cnc3c(N)ncnc32)[C@H](O)[C@@H]1O` (stereo in doubt; 7): 0.0065 s⁻¹ and 0.0001 µM⁻¹ s⁻¹.
Taken in the same sequence, the figures for `CC(C)CCSC[C@H]1O[C@@H](n2cnc3c(N)ncnc32)[C@H](O)[C@@H]1O` were 5.5 s⁻¹ and 1.96 µM⁻¹ s⁻¹.
Turning to `Nc1ncnc2c1ncn2[C@@H]1O[C@H](CSc2ncc[nH]2)[C@@H](O)[C@H]1O`, the K cat in [1] was determined as 3.8 s⁻¹. Moreover, in data set [2], the Ratio was determined as 0.42 µM⁻¹ s⁻¹.
The molecule `CSC[C@H]1O[C@@H](n2cnc3c(N)ncnc32)C(F)[C@@H]1O` (stereo partly drawn) registered a K cat in [1] of 0.0004 s⁻¹.
In the case of `Nc1ncnc2c1ncn2[C@@H]1O[C@H](CSc2ccccn2)[C@@H](O)[C@H]1O`, in data set [1], the K cat was 3.44 s⁻¹. Moreover, the Ratio in [2] was determined as 0.66 µM⁻¹ s⁻¹.
The matching figures for `Nc1ncnc2c1ncn2[C@@H]1O[C@H](CSc2nccs2)[C@@H](O)[C@H]1O`: 2.49 s⁻¹ and 0.73 µM⁻¹ s⁻¹.
Consider `Nc1ncnc2c1ncn2[C@@H]1O[C@H](CSc2ccc3ccccc3n2)[C@@H](O)[C@H]1O`, for which, in [1], the K cat came out at 3.16 s⁻¹. In addition, in data set [2], the Ratio came to 0.46 µM⁻¹ s⁻¹.
Taken in the same sequence, the figures for `Nc1ncnc2c1ncn2[C@@H]1O[C@H](CSCc2ccccc2)[C@@H](O)[C@H]1O` were 2.5 s⁻¹ and 0.53 µM⁻¹ s⁻¹.
Taken in the same sequence, the figures for `CC(C)(C)SC[C@H]1O[C@@H](n2cnc3c(N)ncnc32)[C@H](O)[C@@H]1O` were 0.85 s⁻¹ and 0.05 µM⁻¹ s⁻¹.
Taken in the same sequence, the figures for `Nc1ncnc2c1ncn2[C@@H]1O[C@H](CSc2ccc(C(F)(F)F)cc2)[C@@H](O)[C@H]1O` were 0.3 s⁻¹ and 0.17 µM⁻¹ s⁻¹.
The molecule `CSC[C@H]1O[C@@H](n2cnc3c(N)ncnc32)[C@H](O)[C@@H]1O` (stereo in doubt; 1) registered a K cat in [1] of 4.6 s⁻¹. Further, in data set [2], the Ratio is 3.2 µM⁻¹ s⁻¹.
The matching figures for `CCC(C)CSC[C@H]1O[C@@H](n2cnc3c(N)ncnc32)[C@H](O)[C@@H]1O` (stereo partly drawn): 4.2 s⁻¹ and 0.84 µM⁻¹ s⁻¹.
As for `Nc1ncnc2c1ncn2[C@@H]1O[C@H](COc2ccccc2)[C@@H](O)[C@H]1O`, in data set [1], the K cat amounted to 1.11 s⁻¹. For the same molecule, the Ratio in data set [2] came to 0.09 µM⁻¹ s⁻¹.
The matching figures for `CCSC[C@H]1O[C@@H](n2cnc3c(N)ncnc32)[C@H](O)[C@@H]1O`: 2.9 s⁻¹ and 1.6 µM⁻¹ s⁻¹.
Taken in the same sequence, the figures for `Cc1ccc(SC[C@H]2O[C@@H](n3cnc4c(N)ncnc43)[C@H](O)[C@@H]2O)cc1` were 1.4 s⁻¹ and 0.93 µM⁻¹ s⁻¹.
The matching figures for `Cc1cccc(SC[C@H]2O[C@@H](n3cnc4c(N)ncnc43)[C@H](O)[C@@H]2O)c1`: 2.4 s⁻¹ and 1.2 µM⁻¹ s⁻¹.
In data set [1], `CC(C)CSC[C@H]1O[C@@H](n2cnc3c(N)ncnc32)[C@H](O)[C@@H]1O` yielded a K cat of 2.3 s⁻¹. Also, the Ratio in data set [2] is 0.74 µM⁻¹ s⁻¹.
Taken in the same sequence, the figures for `Nc1ncnc2c1ncn2[C@@H]1O[C@H](CSCCc2ccccc2)[C@@H](O)[C@H]1O` were 2.14 s⁻¹ and 0.43 µM⁻¹ s⁻¹.

B1: S-methyl-5'-thioadenosine phosphorylase (Homo sapiens), Q13126 (protein)
chain: T1 sequence (whole entry)
As a reminder, the Km is the concentration of substrate that gives half-maximal velocity. Take B1: the Km in data set [3] turned out to be 6 µM; in data set [4], 8.5 µM; in data set [5], 1.7 µM; in data set [6], 30 µM; in data set [7] it was 3.9 µM; in data set [8], 1.8 µM. In addition, the Km in [9] amounted to 5 µM; in [10] it was 5 µM; in data set [11] it was 3.4 µM; in [12] it was 6.9 µM; in data set [13] it was 3.1 µM; in data set [14], 17 µM. The Km was determined as 10.2 µM in data set [15]; 4 µM in [16]; 2 µM in data set [17]; 4.6 µM in data set [18]; 7 µM in [19]; 3.5 µM in data set [20]. In addition, the Km in [21] was found to be 3.1 µM; in data set [22], 2.8 µM; in [23], 3.2 µM; in data set [24], 12 µM; in data set [25], 3 µM; in data set [26] it was 9 µM. Moreover, the Michaelis-Menten constant (Km) in [27] is 1.3 µM; in data set [28] it was 5.2 µM; in data set [29], 0.88 µM; in data set [30], 25 µM; in data set [31], 5.6 µM; in data set [32], 3600 µM. Further, the Km in [33] stood at 1.5 µM.
